Measurements taken from paper PMC7044277 (Nature Communications, 2020).
“And” between values parts separate entries of the source, which are not always exact repeats. Equal entries are not always repeated.

Columns and labels:
Type in all cases: cell-based
320 non-olfactory GPCRs [1] = target: T1, 320 non-olfactory GPCRs (Homo sapiens, UniProt P08588)
T1 construct: expressed in transfected cells; host or cells: HTLA cells

320 non-olfactory GPCRs [2] = target: 320 non-olfactory GPCRs (Homo sapiens, UniProt P14416)
Chain of 320 non-olfactory GPCRs (Homo sapiens, UniProt P14416) (P14416 whole entry): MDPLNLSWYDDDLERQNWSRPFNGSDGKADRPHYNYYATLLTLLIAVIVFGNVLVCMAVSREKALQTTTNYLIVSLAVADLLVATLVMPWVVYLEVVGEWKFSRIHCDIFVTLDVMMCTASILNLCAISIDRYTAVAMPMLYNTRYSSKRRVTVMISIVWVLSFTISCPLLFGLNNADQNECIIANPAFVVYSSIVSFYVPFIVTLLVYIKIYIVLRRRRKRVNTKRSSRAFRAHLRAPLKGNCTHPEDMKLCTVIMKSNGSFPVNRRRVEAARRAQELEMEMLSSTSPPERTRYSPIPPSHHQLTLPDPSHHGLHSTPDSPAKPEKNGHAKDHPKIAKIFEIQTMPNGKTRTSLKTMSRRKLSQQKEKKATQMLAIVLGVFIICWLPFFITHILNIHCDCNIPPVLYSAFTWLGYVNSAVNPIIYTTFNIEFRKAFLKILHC

320 non-olfactory GPCRs [3] = target: T2, 320 non-olfactory GPCRs (Homo sapiens, UniProt P28336); conditions: receptor NMBR; replicate values, Fig_4g
T2 construct: expressed in transfected cells; host or cells: HTLA cells
T2 sequence (P28336 whole entry): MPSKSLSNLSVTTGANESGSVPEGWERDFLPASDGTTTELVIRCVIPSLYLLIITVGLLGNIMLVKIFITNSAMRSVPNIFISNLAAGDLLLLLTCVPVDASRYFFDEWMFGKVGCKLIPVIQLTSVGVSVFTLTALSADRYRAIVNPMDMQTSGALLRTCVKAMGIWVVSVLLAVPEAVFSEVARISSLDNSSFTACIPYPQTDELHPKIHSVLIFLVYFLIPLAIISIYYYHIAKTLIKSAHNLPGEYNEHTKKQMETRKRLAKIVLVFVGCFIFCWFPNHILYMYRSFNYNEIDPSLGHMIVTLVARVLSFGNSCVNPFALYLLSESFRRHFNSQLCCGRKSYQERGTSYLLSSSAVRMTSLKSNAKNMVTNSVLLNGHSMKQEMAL

320 non-olfactory GPCRs [4] = target: T3, 320 non-olfactory GPCRs (Homo sapiens, UniProt Q9NS75)
T3 construct: expressed in transfected cells; host or cells: HTLA cells
T3 sequence (Q9NS75 whole entry): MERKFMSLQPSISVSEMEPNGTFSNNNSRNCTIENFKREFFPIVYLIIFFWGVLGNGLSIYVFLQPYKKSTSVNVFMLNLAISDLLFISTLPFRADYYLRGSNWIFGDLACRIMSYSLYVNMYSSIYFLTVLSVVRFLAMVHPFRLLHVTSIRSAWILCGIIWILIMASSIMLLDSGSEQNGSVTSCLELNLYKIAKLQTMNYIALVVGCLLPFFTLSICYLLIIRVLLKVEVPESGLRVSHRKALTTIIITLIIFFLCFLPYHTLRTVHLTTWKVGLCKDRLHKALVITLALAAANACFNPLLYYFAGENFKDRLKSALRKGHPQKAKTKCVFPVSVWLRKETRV
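For Fold of Basal in this document: compound tested at 1 µM final concentration.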
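For GPCRome agonism screen response in this document: fold over basal response of each receptor without drug.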

T1 sequence (P08588 whole entry): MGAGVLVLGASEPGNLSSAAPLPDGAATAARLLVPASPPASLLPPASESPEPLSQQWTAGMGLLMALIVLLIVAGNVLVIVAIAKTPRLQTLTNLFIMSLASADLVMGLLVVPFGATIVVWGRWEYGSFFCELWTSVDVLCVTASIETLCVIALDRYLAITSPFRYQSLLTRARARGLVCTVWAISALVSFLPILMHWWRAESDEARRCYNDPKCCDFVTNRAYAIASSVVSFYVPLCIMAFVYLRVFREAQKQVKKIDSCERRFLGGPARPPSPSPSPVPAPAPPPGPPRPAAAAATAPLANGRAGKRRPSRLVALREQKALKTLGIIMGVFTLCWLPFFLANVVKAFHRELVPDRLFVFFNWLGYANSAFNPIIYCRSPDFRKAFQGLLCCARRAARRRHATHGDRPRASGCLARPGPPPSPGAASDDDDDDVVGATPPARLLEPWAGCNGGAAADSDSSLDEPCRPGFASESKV

SMILES: CCOc1cccc2cc(C(C)NCC3(O)CCCCC3)oc12 (stereo not shown) [O4LE6]
- Fold of Basal (320 non-olfactory GPCRs [1]): 0.9495 and 0.9531 and 1.111 and 0.8261
- Fold of Basal (320 non-olfactory GPCRs [2]): 84.6178 and 80.3873 and 78.6628 and 75.3887
- GPCRome agonism screen response (320 non-olfactory GPCRs [3]): 0.2359 and 0.9261 and 0.9727 and 0.7093
- Fold of Basal (320 non-olfactory GPCRs [4]): 2.056 and 1.771 and 2.16 and 1.536
